Values of other authors as cited in patent US7332526B2 (Allergan, Inc., priority 2003, dated 2008).
No end group written: not given here.

Key:
[1] = in vivo
[2] = tested on: wounded corneal epithelial cells; conditions: in vitro, rabbit cells

In the case of `CCNC(=O)CCC/C=C\C[C@@H]1[C@@H](/C=C/[C@@H](O)CCc2ccccc2)[C@H](O)C[C@@H]1O` [bimatoprost], the “hyperemia and other irritating side effects compared to certain prostaglandins” value [1] is listed as “significantly less hyperemia and other irritating side effects”.

In the case of “TFF3: human trefoil factor family peptide with one trefoil domain, produced by goblet cells of small and large intestine (EEYVGLSANQCAVPAKDRVDCGYPHVTPKECNNRGCCFDSRIPGVPWCFKPLQEAECTF; ends and bridges not checked; cysteine pairing not given here; UniProt Q07654 22-80, looked up)”, the “migration of wounded corneal epithelial cells” value [2] is listed as “promote the migration”.

B1: TFF2: human trefoil factor family peptide containing two trefoil domains, produced by mucus-producing cells of stomach (protein, UniProt Q03403 24-129, looked up)
Trefoil factor 2: EKPSPCQCSRLSPHNRTNCGFPGITSDQCFDNGCCFDSSVTGVPWCFHPLPKQESDQCVMEVSDRRNCGYPGISPEECASRKCCFSNFIFEVPWCFFPKSVEDCHY
For B1, the “migration of wounded corneal epithelial cells” value [2] is listed as “promote the migration”.
